{"source": "patent US20250345370A1", "about": "“MICROBIAL LIBERATION OF N-METHYLSEROTONIN FROM ORANGE FIBER” (Washington University, priority 2022, published 2025)", "key": {"[1]": {"assay": "Tissue metabolites (liver glycogen and precursors, colonic glutamate) in germ-free mice given N-methylserotonin", "assay_type": "in vivo, germ-free C57BL/6J mice", "protocol": "For experiments involving administration of N-methylserotonin to germ-free mice, a stock solution of the compound (100 mg/mL, Santa Cruz Biotechnologies) was prepared in sterile water and filter sterilized ([…]; Nalgene). The outer surface of tubes containing the stock solution was sterilized with Clidox (Pharmacal) and the tubes were introduced into gnotobiotic isolators using standard procedures. The stock solution was then diluted in darkened glass water bottles (Ancare) in order to administer doses of 1 mg/kg/day or 50 mg/kg/day (based on an experimentally determined average consumption of 5 mL of water/day/mouse). Every four days, bottles were replaced with new ones containing fresh N-methylserotonin. Each of the three arms of the experiment, including the control arm where unsupplemented drinking water was administered, consisted of 5 mice.\nFecal samples and body weights were collected weekly, while food and water intake were monitored daily by comparing pellet mass in the food hopper and the volume of water in water bottles at the beginning and end of a 24 h period and dividing these values by the number of mice per cage. All animals were euthanized between 0830 h and 0930 h without prior fasting. Luminal contents from the proximal and distal halves of the small intestine, the cecum and the colon, host tissues (liver, epididymal fat pads, gastrocnemius muscle, the distal quarter of the small intestine (ileum), cecum and entire colon) plus serum were collected, flash frozen in liquid nitrogen and stored at −80° C. prior to analyses.\nOther metabolites—Tissue (at least 10 mg) was placed in a reinforced 2 mL tube. A 20 times weight volume of extraction solvent was added (40% acetonitrile, 40% methanol, 20% water) and the tissue was disrupted as described herein. Samples were centrifuged at 12,000×g for 10 minutes at 4° C. A 200 μL aliquot of the resulting supernatant was transferred to a 2 mL glass tube and dried in a speed vacuum at room temperature (25° C.) for two hours. The dry extract was reconstituted in 100 μL of 90% water/10% acetonitrile and stored at −4° C. prior to injection; 5 μL was injected into a 1290 Infmity II UHPLC system coupled to a 6470 Triple Quadrupole LC/MS system equipped with a Jet Stream electrospray ionization source (Agilent Technologies). Chromatographic separation was performed on an Agilent ZORBAX Extend C18, […], 1.8 μm column, using the following gradient conditions: mobile phase A, 10 mM tributylamine and 15 mM acetic acid in 3% methanol (v/v); mobile phase B, 10 mM tributylamine and 15 mM acetic acid in 100% methanol; 0% solvent B (0-2 minutes); 0-20% solvent B (2-7.5 minutes); 20-45% solvent B (7.5-13 minutes); 45-99% solvent B (13-20 minutes); 99-0% solvent B (20-22 minutes) at a flow rate of 0.25 mL/minute. […] Transitions were taken from the Agilent Metabolomics dMRM Database.\nGlutamate is known to […] Arntl when directly applied to tissue slices. Knockout of the Per3 homolog Per2 reduces expression of the glutamate transporter (Eaatl, Slc1A3) and uptake of glutamate in the brain. These observations raise the possibility that one way that N-methylserotonin might influence colonic circadian regulators is through its effects on glutamate levels in this tissue."}, "[2]": {"assay": "N-methylserotonin degradation test in bacterial monocultures", "conditions": "5 ng/ml added to monocultures of the 14 strains, 72-hour period", "protocol": "Experiments to determine whether N-methylserotonin is synthesized de novo by B. ovatus were carried out in 10 mL TYG with or without supplementation with tryptophan, tryptamine, serotonin, dimethylserotonin, trimethylserotonin, methyltryptamine, or S-adenosyl methionine (final concentrations; 5 mg/mL; all from Sigma). Experiments seeking to test the capacity of all 14 bacterial strains introduced into mice to degrade N-methylserotonin in vitro were carried out using 10 mL TYG and 50 ng N-methylserotonin, with samples collected every 24 hours. Assays were performed in triplicate for each condition, using the protocol described herein.\nSeveral other experiments were performed to characterize in vitro N-methylserotonin liberation by members of the 14 strain consortia."}, "5-Htr7": {"target": "5-Htr7 (Homo sapiens, UniProt P34969)", "sequence (P34969 whole entry)": "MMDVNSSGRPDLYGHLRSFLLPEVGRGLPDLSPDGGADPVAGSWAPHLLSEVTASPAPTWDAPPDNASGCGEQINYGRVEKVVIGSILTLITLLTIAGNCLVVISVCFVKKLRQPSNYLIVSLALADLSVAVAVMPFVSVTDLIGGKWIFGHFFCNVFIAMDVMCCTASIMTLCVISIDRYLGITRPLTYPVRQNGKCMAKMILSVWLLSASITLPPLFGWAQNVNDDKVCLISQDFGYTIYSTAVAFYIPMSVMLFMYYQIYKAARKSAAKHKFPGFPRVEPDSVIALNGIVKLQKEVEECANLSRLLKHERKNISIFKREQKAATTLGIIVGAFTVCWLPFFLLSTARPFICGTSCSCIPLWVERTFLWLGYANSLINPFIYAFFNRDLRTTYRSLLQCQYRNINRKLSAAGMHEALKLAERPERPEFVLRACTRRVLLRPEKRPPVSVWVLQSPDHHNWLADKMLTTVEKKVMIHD", "conditions": "in vitro studies; cited from earlier work"}}}
{"smiles": "CNCCc1c[nH]c2ccc(O)cc12", "note": "[N-methylserotonin]", "values": [{"measurement": "liver glucose-6-phosphate", "setting": "[1]; 1 mg/kg/day", "result": "the lower dose did not"}, {"measurement": "liver glycogen", "setting": "[1]; 1 mg/kg/day", "result": "the lower dose did not"}, {"measurement": "liver uridine", "setting": "[1]; 1 mg/kg/day", "result": "the lower dose did not"}, {"measurement": "liver uridine monophosphate", "setting": "[1]; 1 mg/kg/day", "result": "the lower dose did not"}, {"measurement": "liver glucose-6-phosphate", "setting": "[1]; 50 mg/kg/day", "result": "statistically significant decrease"}, {"measurement": "liver glycogen", "setting": "[1]; 50 mg/kg/day", "result": "statistically significant increases"}, {"measurement": "liver uridine", "setting": "[1]; 50 mg/kg/day", "result": "statistically significant decreases"}, {"measurement": "liver uridine monophosphate", "setting": "[1]; 50 mg/kg/day", "result": "statistically significant decreases"}, {"measurement": "glutamate levels in colonic tissue", "setting": "[1]; 50 mg/kg/day, untreated controls 11±0.9", "result": "21±1.4", "unit": "ng/mg tissue"}, {"measurement": "input N-methylserotonin remaining intact/unmodified", "setting": "[2]", "result": "97±2", "unit": "%"}, {"measurement": "binding", "setting": "5-Htr7", "result": "binds"}]}
